We go through 19 compounds from patent publication US11161854B2, “Indazolyl-spiro[2.2]pentane-carbonitrile derivatives as LRRK2 inhibitors, pharmaceutical compositions, and uses thereof” (Merck Sharp & Dohme Corp., priority 2017, dated 2021).

SMILES strings stand for the structures.

Sequence of GST-tagged truncated human mutant G2019S LRRK2 (Q5S007 970-2527 G2019S): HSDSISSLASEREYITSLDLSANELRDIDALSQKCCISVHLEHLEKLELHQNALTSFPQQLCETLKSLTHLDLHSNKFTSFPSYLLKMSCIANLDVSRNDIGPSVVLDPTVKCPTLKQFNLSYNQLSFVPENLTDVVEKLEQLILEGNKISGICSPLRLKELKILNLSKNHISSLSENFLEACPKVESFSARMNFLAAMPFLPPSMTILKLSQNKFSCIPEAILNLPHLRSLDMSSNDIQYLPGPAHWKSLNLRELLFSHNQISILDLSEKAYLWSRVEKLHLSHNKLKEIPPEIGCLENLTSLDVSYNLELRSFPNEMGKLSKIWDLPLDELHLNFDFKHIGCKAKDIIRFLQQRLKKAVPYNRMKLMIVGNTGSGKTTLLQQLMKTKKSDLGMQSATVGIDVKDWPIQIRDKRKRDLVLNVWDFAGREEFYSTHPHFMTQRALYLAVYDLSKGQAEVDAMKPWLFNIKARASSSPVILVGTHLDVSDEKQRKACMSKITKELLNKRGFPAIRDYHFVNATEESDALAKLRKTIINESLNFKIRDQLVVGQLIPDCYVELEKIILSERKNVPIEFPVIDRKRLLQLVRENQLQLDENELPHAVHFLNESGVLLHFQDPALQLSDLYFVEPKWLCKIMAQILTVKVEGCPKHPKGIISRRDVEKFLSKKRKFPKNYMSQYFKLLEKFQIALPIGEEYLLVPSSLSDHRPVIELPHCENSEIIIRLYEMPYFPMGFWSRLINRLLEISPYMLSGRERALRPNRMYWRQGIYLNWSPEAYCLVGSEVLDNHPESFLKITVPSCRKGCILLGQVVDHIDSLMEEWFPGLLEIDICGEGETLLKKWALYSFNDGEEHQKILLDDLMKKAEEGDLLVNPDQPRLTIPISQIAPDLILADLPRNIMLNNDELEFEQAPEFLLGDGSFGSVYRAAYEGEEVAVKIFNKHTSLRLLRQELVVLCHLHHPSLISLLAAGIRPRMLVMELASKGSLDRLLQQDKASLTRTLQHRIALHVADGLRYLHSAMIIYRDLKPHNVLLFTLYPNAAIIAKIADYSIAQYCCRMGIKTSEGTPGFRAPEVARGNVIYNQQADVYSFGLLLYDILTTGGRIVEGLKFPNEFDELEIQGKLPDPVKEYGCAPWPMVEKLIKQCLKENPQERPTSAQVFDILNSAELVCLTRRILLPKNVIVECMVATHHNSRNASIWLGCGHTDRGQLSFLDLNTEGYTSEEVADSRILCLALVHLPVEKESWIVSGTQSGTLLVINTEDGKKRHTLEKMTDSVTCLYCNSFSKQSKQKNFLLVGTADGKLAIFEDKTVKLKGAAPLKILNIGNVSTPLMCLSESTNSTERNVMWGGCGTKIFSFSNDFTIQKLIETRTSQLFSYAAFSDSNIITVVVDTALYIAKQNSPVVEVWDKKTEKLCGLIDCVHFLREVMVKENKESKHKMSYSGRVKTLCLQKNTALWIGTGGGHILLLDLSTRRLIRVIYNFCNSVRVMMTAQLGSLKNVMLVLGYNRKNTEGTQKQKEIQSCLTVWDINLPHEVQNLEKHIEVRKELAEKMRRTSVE

This assay concerns the target GST-tagged truncated human mutant G2019S LRRK2 (Homo sapiens (Human), UniProt Q5S007, G2019S). The assay is described as follows: LRRK2 G2019S Km ATP LanthaScreen Assay. Format: biochemical. Conditions: 134 μM ATP (Km ATP); fluorescein-labeled LRRKtide substrate; mean IC50 values. As to the method:
The IC50 values reported herein were measured as follows.
Biological Assay: LRRK2 Km ATP LanthaScreen™ Assay
The data presented for the Km ATP LanthaScreen™ Assay represents mean IC50 values based on several test results and may have reasonable deviations depending on the specific conditions and reagents used. Assays were performed in the presence of 134 μM ATP (Km ATP). Upon completion, the assay was stopped and phosphorylated substrate detected with a terbium (Tb)-labeled anti-pERM antibody (cat. no. PV4898). The compound dose response was prepared by diluting a 10 mM stock of compound to a maximum concentration of […] in 100% dimethylsulfoxide followed by custom fold serial dilution in dimethylsulfoxide nine times. Twenty nanoliters of each dilution was spotted via a Labcyte Echo onto a 384-well black-sided plate (Corning 3575) followed by 15 μl of a 1.25 nM enzyme solution in 1× assay buffer (50 mM Tris pH 8.5, 10 mM MgCl2, 0.01% Brij-35, 1 mM EGTA, 2 mM dithiothreitol, 0.05 mM sodium orthovanadate). Following a 15-minute incubation at room temperature, the kinase reaction was started with the addition of 5 μl of 400 nM fluorescein-labeled LRRKtide peptide substrate and 134 μM ATP solution in 1× assay buffer. The reaction was allowed to progress at ambient temperature for 90 minutes. The reaction was then stopped by the addition of 20 μl of TR-FRET Dilution Buffer (Life Technologies, Carlsbad, Calif.) containing 2 nM Tb-labeled anti-phospho LRRKtide antibody and 10 mM EDTA (Life Technologies, Carlsbad, Calif.). After an incubation of 1 hour at room temperature, the plate was read on an EnVision multimode plate reader (Perkin Elmer, Waltham, Mass.) with an excitation wavelength of 337 nm (Laser) and a reading emission at both 520 and 495 nm. […] Abase uses a 4 parameter (4P) logistic fit based on the Levenberg-Marquardt algorithm.
In general, IC50 refers to the concentration that gives 50% inhibition. Low readings indicate greater potency in that assay, high ones weaker potency in that assay. On to `Cc1nc(N2CC3(CN(CC(F)(F)F)C3)C2)cc(-n2ncc3ccc(C4(C#N)CC45CC5)cc32)n1` (stereo not shown) [Example 12.2], for which the IC50 was 28.4 nM.
Take `Cc1nc(N2CC3(CN(CC(F)(F)F)C3)C2)cc(-n2ncc3cnc(C4(C#N)CC45CC5)cc32)n1` (single isomer, unassigned) [Example 12.1, (S or R)-1-(1-(2-methyl-6-(6-(2,2,2-trifluoroethyl)-2,6-diazaspiro[3.3]heptan-2-yl)pyrimidin-4-yl)-1H-pyrazolo[4,3-c]pyridin-6-yl)spiro[2.2]pentane-1-carbonitrile]: the IC50 was found to be 2.1 nM.
In turn, `Cc1nc(N2C[C@@H]3C[C@H]2CN3C2(C)COC2)cc(-n2ncc3ccc([C@]4(C#N)CC45CC5)cc32)n1` [Example 11.4] showed an IC50 of 8.6 nM.
The result for `N#C[C@]1(c2ccc3cnn(-c4cc(N5CC(O)C6(CC6)C5)ncn4)c3c2)CC12CC2` (single isomer, unassigned) [Example 3.11-3] reads 6.3 nM; that for `CC1C(C(C)(C)O)CCN1c1cc(-n2ncc3ccc([C@@]4(C#N)CC45CC5)cc32)ncn1` (single isomer, unassigned) [Example 3.5-4], 0.6 nM; that for `CC1CN(c2cc(-n3ncc4ccc([C@]5(C#N)CC56CC6)cc43)ncn2)CC1C(C)(C)O` (single isomer, unassigned) [Example 3.6-2], 0.6 nM.
`CC(C)(O)C12CC(C1)N(c1cc(-n3ncc4ccc([C@@]5(C#N)CC56CC6)cc43)ccn1)C2` [Example 6.1-2] had an IC50 of 5.3 nM.
For `CC(C)(O)[C@@H]1CCN(c2cc(-n3ncc4ccc([C@]5(C#N)CC56CC6)cc43)ncn2)C1` [Example 1.4-2, (S)-1-(1-(6-((R)-3-(2-hydroxypropan-2-yl)pyrrolidin-1-yl)pyrimidin-4-yl)-1H-indazol-6-yl)spiro[2.2]pentane-1-carbonitrile], the IC50 was found to be 0.9 nM.
Turning to `Cc1cc(-n2ncc3ccc([C@]4(C#N)CC45CC5)cc32)ncn1` [Example 11.7], the IC50 came to 7.4 nM.
Regarding `C[C@H]1CN(c2cc(-n3ncc4ccc([C@@]5(C#N)CC56CC6)cc43)ncn2)CCN1C1CCOC1` (single isomer, unassigned) [Example 3.8-2], 0.8 nM corresponded to half-maximal inhibition (IC50).
`CCc1nc(C)cc(-n2ncc3ccc([C@]4(C#N)CC45CC5)cc32)n1` [Example 4.27] registered a half-maximal inhibitory concentration (IC50) of 3.2 nM.
As to `COCc1nc(N2CCN(C3COC3)[C@H](C)C2)cc(-n2ncc3ccc([C@]4(C#N)CC45CC5)cc32)n1` [Example 4.11-1], the IC50 turned out to be 1.3 nM.
Consider `C[C@H]1CN(c2cc(-n3ncc4ccc([C@]5(C#N)CC56CC6)cc43)ncn2)CCN1S(C)(=O)=O` [Example 4.8], for which half-maximal inhibition (IC50) required 1.2 nM.
Compound `CNc1nc(N2CC[C@H](C(F)F)C2)cc(-n2ncc3ccc(C4(C#N)CC45CC5)cc32)n1` (single isomer, unassigned) [Example 2.8-1] showed an IC50 of 0.7 nM.
As to `CN1CCOC2(C1)CN(c1cc(-n3ncc4ccc([C@]5(C#N)CC56CC6)cc43)ncn1)C2` [Example 4.13], the IC50 worked out at 0.6 nM.
In the case of `CC(C)(O)C12CC(C1)N(c1cc(-n3ncc4cnc(C5(C#N)CC56CC6)cc43)ccn1)C2` (single isomer, unassigned) [Example 6.7-1, 1-(1-(2-(4-(2-hydroxypropan-2-yl)-2-azabicyclo[2.1.1]hexan-2-yl)pyridin-4-yl)-1H-pyrazolo[4,3-c]pyridin-6-yl)spiro[2.2]pentane-1-carbonitrile], the 50% inhibitory concentration (IC50) was 59 nM.
In turn, `Cc1cc(-n2ncc3ccc([C@]4(C#N)CC45CC5)cc32)nc(C2CC2)n1` [Example 4.23] gave a 50% inhibitory concentration (IC50) of 3.2 nM.
The compound `CS(=O)(=O)N1CCN(c2cc(-n3ncc4ccc([C@]5(C#N)CC56CC6)cc43)ccn2)CC1` [Example 4.14] came in with a concentration for half-maximal inhibition (IC50) of 2.8 nM.
The result for `COCc1nc(N2CC(OC)C2)cc(-n2ncc3ccc([C@]4(C#N)CC45CC5)cc32)n1` [Example 4.5] reads 2.6 nM.
